The source of these data is patent US20140134135A1, “METHODS AND COMPOSITIONS FOR PRESERVING LEAN BODY MASS DURING WEIGHT LOSS” (NESTEC SA, priority 2011, published 2014).

The nature of the test: Four-month weight loss study with oral OEA in the diet; body weight and body composition by DEXA. In kind it is in vivo, dogs (adult Labradors). From the text: The physiological effects of regular oral OEA administration were investigated. OEA was provided as a supplement to dogs for four months to study the effect on body weight loss and body composition. Seventeen adult Labradors participated in the study. Males with greater than 22% body fat and females with greater than 26% body fat were selected. Based on maintenance energy requirements (MER), body weight and percentage of body fat, the dogs were randomly assigned into two groups. The control group (N=9) received a standard dry adult dog food (the control diet without any OEA). The test group (N=8) received the selected dose of OEA incorporated into the standard diet. The dogs were fed 25% less than their MER for 3 months and an additional 15% less for the next month. Body weight was recorded weekly and dual X-ray absorptiometry (DEXA) scans were performed at baseline and every month.

[1] abbreviates: dogs fed OEA containing diet, calorie restricted, four months, chronic oral.
Where [2] appears, read: dogs fed a weight loss diet with OEA.

In the case of `CCCCCCCC/C=C\CCCCCCCC(=O)NCCO` [OEA, oleoylethanolamide], under setting [1], the “Fat Loss (g/kg body weight loss)” value is 561 g/kg body weight loss and the “Lean Loss (g/kg body weight loss)” value is listed as 469 g/kg body weight loss. Besides, under setting [2], the “body fat loss versus weight loss diet without OEA (in words)” value is recorded as “more loss in body fat” and the “lean body mass loss versus weight loss diet without OEA (in words)” value was “reduced loss of lean body mass”. Further, the “less fat lost by dogs fed the control diet than by dogs fed the OEA containing diet, for every kilogram of body weight loss” value (end of the four month study, control diet versus OEA diet) was 52%. In addition, under “end of the four month study, versus control diet”, the “less lean body mass lost than dogs fed the control diet, for every kilogram of body weight loss” value was determined as 20%. The “change in body fat” value (end of the four month study, control diet −0.3%) is −1.8%. Further, where the note is “end of the four month study, control diet −1432.2 g”, the “change in lean body mass” value was -1166.6 g.
